Test results published in patent US10889553B2, “Asymmetric triazole benzamide derivatives and the compositions and methods of treatment regarding the same” (NysnoBio Ireland DAC, priority 2017, dated 2021).

What was measured:
[1] = system: subcutaneous HCT-116 (colon cancer) xenograft; assay: In vivo cancer xenograft assay; conditions: 5 mg/kg daily IP, up to 26 days, HCT-116 xenograft in nude mice (FIG. 1)
Method: Each mouse was inoculated subcutaneously at the flank region with either HCT-116 cells (1.0×106) in 0.1 ml of 1×PBS mixed with Matrigel (1:1) for tumor development and xenotransplantation.
The vehicle with or without drug is administered to the mouse by intraperitoneal injection. The formulation with respective drug is as follows: • 10% —DMA: N,N-Dimethyl acetamide • 15% —Solutol HS 15: Macrogol 15 Hydroxy Stearate, Polyethylene glycol-15-hydroxystrerate; and 75%-20% aqueous HP-β-CD: Hydroxypropyl-beta-cyclodextrin
Before grouping and treatment, all animals were weighed and the tumor volumes were confirmed (approx. 120-150 mm^3) using electronic caliper. Since the tumor volume can affect the effectiveness of any given treatment, mice were assigned into groups using randomized block design as following: First, the experimental animals were divided into homogeneous blocks based on their tumor volume. […]
After tumor cells were inoculated, the animals were checked daily for morbidity and mortality. […] Death and observed clinical signs were recorded. Tumor volumes were measured every three days in two dimensions using an electronic caliper, and the volume data were expressed in mm^3 using the formula: V=0.5 a×b2 where a and b are the long and short diameters of the tumor, respectively. Tumor volume average is then recorded for each day for groups 1-4 until day 26.

[2] = molecular target: CYP2D6 (Homo sapiens, UniProt P10635); assay: CYP inhibition assay; format: in vitro ADME; conditions: read-out: % Inhibition at 30 μM CYP 2D6
Chain of CYP2D6 (P10635 whole entry): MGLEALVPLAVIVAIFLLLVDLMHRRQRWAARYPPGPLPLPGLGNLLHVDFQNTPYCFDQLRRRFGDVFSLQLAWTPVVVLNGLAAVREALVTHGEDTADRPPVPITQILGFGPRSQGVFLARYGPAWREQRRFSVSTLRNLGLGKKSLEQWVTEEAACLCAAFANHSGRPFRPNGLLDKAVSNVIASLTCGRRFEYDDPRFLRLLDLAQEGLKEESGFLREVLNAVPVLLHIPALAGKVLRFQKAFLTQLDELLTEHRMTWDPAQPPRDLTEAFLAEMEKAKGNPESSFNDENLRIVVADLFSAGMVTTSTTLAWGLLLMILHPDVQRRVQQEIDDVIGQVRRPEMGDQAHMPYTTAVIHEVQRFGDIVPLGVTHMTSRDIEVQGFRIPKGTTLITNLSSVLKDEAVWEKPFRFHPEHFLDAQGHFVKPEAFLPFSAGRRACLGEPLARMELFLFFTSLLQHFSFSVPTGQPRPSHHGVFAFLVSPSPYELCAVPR

Cc1ccccc1C(=O)Nc1nc(NC(=O)c2ccccc2C)n(-c2ccc(OC(F)(F)F)cc2)n1 [Compound 42, N,N′-(1-(4-(trifluoromethoxy)phenyl)-1H-1,2,4-triazole-3,5-diyl)bis(2-methylbenzamide)]
reduced tumor size [1]: greater than 50%
inhibition at 30 μM [2]: 6.87%
